The test system of data set [1] is Human immunodeficiency virus 1. The data set can be described thus: Antiviral activity against HIV1 3B infected infected in human MT4 cells assessed as protection against virus-induced cytotoxicity after 5 days by MTT assay. Format: functional, organism-based. Conditions: Human immunodeficiency virus 1, 3B, MT4, 120 h. In general terms: Tetrazolium dyes change colour on reduction, which living cells bring about.

Data set [2] relates to Human immunodeficiency virus 2. The data set is described as follows: Antiviral activity against HIV2 ROD infected in human MT4 cells assessed as protection against virus-induced cytotoxicity after 5 days by MTT assay. Type of data set: functional, organism-based. The settings on record: Human immunodeficiency virus 2, ISOLATE ROD, MT4, 120 h.
Data set [3] deals with HeLa. The data set is described as follows: Cytotoxicity against mock-infected human […] cells by MTT assay. Format: functional.
Data set [4] in a line: Selectivity index, ratio of CC50 for mock-infected human […] cells to EC50 for HIV2 ROD infected in human MT4 cells. Format: toxicity, cell-based. The settings on record: read-out: Ratio CC50/EC50.
Data set [5] deals with Reverse transcriptase (Human immunodeficiency virus 2) (UniProt Q06347). The data set is described as follows: Inhibition of HIV2 reverse transcriptase using poly(A).oligo(dT) template/primer after 30 mins at 200 ug/mL.
Chain of Reverse transcriptase (Human immunodeficiency virus 2) (Q06347 as listed by the source): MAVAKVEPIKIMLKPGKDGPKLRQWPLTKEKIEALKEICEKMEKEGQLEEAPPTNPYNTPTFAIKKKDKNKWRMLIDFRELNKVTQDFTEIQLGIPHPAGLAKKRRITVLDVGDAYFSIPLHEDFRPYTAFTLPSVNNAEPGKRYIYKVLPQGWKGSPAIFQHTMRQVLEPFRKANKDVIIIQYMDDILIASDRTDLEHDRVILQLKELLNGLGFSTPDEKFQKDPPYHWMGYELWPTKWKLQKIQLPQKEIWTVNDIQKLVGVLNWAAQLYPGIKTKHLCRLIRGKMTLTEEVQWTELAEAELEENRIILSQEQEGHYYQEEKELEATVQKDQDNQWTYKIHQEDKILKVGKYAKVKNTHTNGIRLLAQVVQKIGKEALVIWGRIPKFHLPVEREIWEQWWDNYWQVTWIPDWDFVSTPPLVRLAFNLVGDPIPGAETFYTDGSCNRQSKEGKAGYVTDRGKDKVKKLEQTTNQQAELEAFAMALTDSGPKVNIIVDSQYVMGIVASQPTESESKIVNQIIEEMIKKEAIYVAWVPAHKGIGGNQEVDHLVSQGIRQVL
For data set [6] the target is unchanged. The data set can be described thus: Inhibition of HIV2 reverse transcriptase using poly(C).oligo(dG) template/primer after 30 mins at 200 ug/mL.
Data set [7] concerns Human immunodeficiency virus. The data set is described as follows: Antiviral activity against HIV. Type of data set: functional, organism-based. Conditions: Human immunodeficiency virus 1.
Data set [8] concerns Human immunodeficiency virus 1. The data set can be described thus: Antiviral activity against HIV1. Type of data set: functional, organism-based.
Data set [9] relates to Human immunodeficiency virus 2. The data set can be described thus: Antiviral activity against HIV2. Format: functional, organism-based.

The text below walks through data of ChEMBL document CHEMBL3396978, “Design, synthesis of new β-carboline derivatives and their selective anti-HIV-2 activity” (Bioorg Med Chem Lett, 2015).

Activity calls are given as the source filed them. No cut-off for these calls is given here.

As usually defined, the EC50 is the concentration that produces a half-maximal response. In general, CC50 refers to the concentration at which the toxic effect on the cells reaches its halfway point. `Cn1c2ccccc2c2cc(C(=O)N3CCN(c4ccccc4Cl)CC3)nc(-c3ccccc3)c21`: the EC50 in data set [1] and in data set [2] was > 23.6 µM each time. The molecule also returned a CC50 in [3] of 23.6 µM. Moreover, the selectivity ratio in data set [4] is < 1.

Consider `Cn1c2ccccc2c2cc(C(=O)N3CCN(c4cccc(Cl)c4)CC3)nc(-c3ccccc3)c21`, for which the EC50 in data set [1] and in data set [2] was > 111 µM each time. The same molecule came in with a CC50 in data set [3] of 111 µM. Further, the selectivity ratio in data set [4] was < 1.

In the case of `Cn1c2ccccc2c2cc(C(=O)N3CCN(Cc4ccccc4)CC3)nc(-c3ccccc3)c21`, the concentration for a half-maximal effect (EC50) in [1] and in data set [2] was > 21.7 µM in each case. Moreover, half-maximal cytotoxicity in [3] (CC50) was put at 21.7 µM. Moreover, the selectivity ratio in data set [4] was < 1.

As for `COc1ccccc1N1CCN(C(=O)c2cc3c4ccccc4n(C)c3c(-c3ccccc3)n2)CC1`, the EC50 in data set [1] was > 25.3 µM; in data set [2] it was 3.2 µM. For the same molecule, it took 25.3 µM to reach half-maximal cytotoxicity in data set [3] (CC50). For the same molecule, in data set [4], the selectivity ratio amounted to 8. The inhibition entry in [5] and in [6] was “inactive” each time.

For `Cn1c2ccccc2c2cc(C(=O)N3CCN(c4ccncc4)CC3)nc(-c3ccccc3)c21`, the EC50 in [1] and in data set [2] was > 4.02 µM in each case. This molecule yielded a CC50 in [3] of 4.02 µM. Besides, in [4], the selectivity ratio was < 1.

In the case of `Cn1c2ccccc2c2cc(C(=O)N3CCN(c4ccc(Cl)cc4)CC3)nc(-c3ccccc3)c21`, the EC50 in data set [1] and in [2] was > 208 µM throughout. Besides, the CC50 in [3] was > 208 µM.

With `COc1ccc(N2CCN(C(=O)c3cc4c5ccccc5n(C)c4c(-c4ccccc4)n3)CC2)cc1`, the EC50 in data set [1] and in [2] was > 210 µM throughout. Further, the half-maximal cytotoxic concentration (CC50) in data set [3] is > 210 µM.

Turning to `Cn1c2ccccc2c2cc(C(=O)N3CCN(c4ccc([N+](=O)[O-])cc4)CC3)nc(-c3ccccc3)c21`, the EC50 in data set [1] and in data set [2] was > 204 µM in each case. In addition, the CC50 in data set [3] was > 204 µM.

With `COc1cccc(N2CCN(C(=O)c3cc4c5ccccc5n(C)c4c(-c4ccccc4)n3)CC2)c1`, the EC50 in data set [1] and in [2] was > 134 µM in each case. The same molecule showed a CC50 in data set [3] of 134 µM. Besides, in [4], the selectivity ratio is < 1.

As to `Nc1ccn([C@@H]2CS[C@H](CO)O2)c(=O)n1` [LAMIVUDINE], the EC50 was found to be 0.89 µM in data set [1] and 3.56 µM in data set [2]. The CC50 in data set [3] is > 20 µM. Further, the selectivity ratio in data set [4] is > 5.6.

Turning to `Cc1ccc(N2CCN(C(=O)c3cc4c5ccccc5n(C)c4c(-c4ccccc4)n3)CC2)cc1`, the EC50 was > 29.6 µM in data set [1] and 3.3 µM in [2]. The CC50 in data set [3] stood at 29.6 µM. In data set [4], the selectivity ratio came out at 9. Further, the inhibition entry in data set [5] and in data set [6] was “inactive” throughout.

As to `Cn1c2ccccc2c2cc(C(=O)N3CCN(c4cccc(Cl)c4Cl)CC3)nc(-c3ccccc3)c21`, the EC50 in [1] and in [2] was > 63.9 µM throughout. For the same molecule, the CC50 in data set [3] was 63.9 µM. Besides, in [4], the selectivity ratio is < 1.

With `Cn1c2ccccc2c2cc(C(=O)N3CCN(c4ccc(F)cc4)CC3)nc(-c3ccccc3)c21`, the EC50 was > 189 µM in data set [1] and 2.6 µM in [2]. Also, the CC50 in [3] was > 189 µM. Moreover, the selectivity ratio in data set [4] is > 72. Further, the inhibition entry in data set [5] and in data set [6] was “inactive” each time.

Consider `Cc1ccccc1N1CCN(C(=O)c2cc3c4ccccc4n(C)c3c(-c3ccccc3)n2)CC1`, for which the EC50 in data set [1] and in data set [2] was > 16.9 µM throughout. Moreover, it took 16.9 µM to reach half-maximal cytotoxicity in data set [3] (CC50). Also, the selectivity ratio in data set [4] was < 1.

As to `O=C(O)c1cc2c([nH]c3ccccc32)c(-c2ccc(CO)o2)n1` [FLAZINE], in data set [7], the half-maximal effective concentration (EC50) was found to be 2360 nM.

Take `NC(=O)c1cc2c([nH]c3ccccc32)c(-c2ccc(CO)o2)n1`: the EC50 in data set [8] came out at 380 nM; in data set [9], 570 nM.

Consider `Cc1ccnc2c1NC(=O)c1cccnc1N2C1CC1` [NEVIRAPINE], for which the EC50 was 0.027 µM in data set [1] and > 4 µM in data set [2]. In data set [3], the CC50 was > 4 µM.

With `Cn1c2ccccc2c2cc(C(=O)N3CCN(c4ccccc4)CC3)nc(-c3ccccc3)c21`, the concentration giving a half-maximal response (EC50) in data set [1] is > 224 µM; in data set [2] it was 29.4 µM. Further, the CC50 in [3] was > 224 µM. For the same molecule, the selectivity ratio in [4] was > 8. In addition, the inhibition result in data set [5] and in data set [6] was “inactive” throughout.

On to `O=c1[nH]cnc2c1ncn2[C@H]1CC[C@@H](CO)O1` [DIDANOSINE], for which the figures for the EC50 in data set [1] and in [2] were 2.56 µM and 2.27 µM, respectively. In data set [3], the CC50 is > 50 µM. Besides, the selectivity ratio in data set [4] was > 21.7.

In the case of `Cc1cn([C@H]2C[C@H](N=[N+]=[N-])[C@@H](CO)O2)c(=O)[nH]c1=O` [ZIDOVUDINE], the EC50 in data set [1] came to 0.0019 µM; in data set [2] it was 0.0016 µM. Moreover, in [3], the CC50 was > 25 µM. Further, in [4], the selectivity ratio is > 12500.

On to `Cn1c2ccccc2c2cc(C(=O)N3CCN(c4ccccn4)CC3)nc(-c3ccccc3)c21`, for which the EC50 in [1] and in data set [2] was > 19.2 µM throughout. In addition, the cytotoxic concentration (CC50) in data set [3] was 19.2 µM. Besides, the selectivity ratio in [4] was < 1.

Consider `Cn1c2ccccc2c2cc(C(=O)N3CCN(c4ccccc4F)CC3)nc(-c3ccccc3)c21`, for which the results for the EC50 in data set [1] and in data set [2] were > 50.6 µM and 5.4 µM, respectively. This molecule also came in with a CC50 in data set [3] of 50.6 µM. The selectivity ratio in [4] worked out at 9. Further, the inhibition entry in [5] and in data set [6] was “inactive” in each case.
